Measurements as given in ChEMBL document CHEMBL1201862, “PubChem BioAssay data set” (2004).
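Each compound was tested at five concentrations against cells in 96-well plates for 48 hours. GI50 = concentration required for 50% inhibition of growth.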 Active and inactive are the calls of the source. No stated cut-off is given here; in the data, active = GI50 up to about 1.1 µM and inactive = higher.

What was measured:
Assay in all cases: growth of human tumour cells (NCI), 48 h
IGROV-1 = system: IGROV-1
SF-295 = system: SF-295
HOP-62 = system: HOP-62
UACC-257 = system: UACC-257
UACC-62 = system: UACC-62
CAKI-1 = system: CAKI-1
SK-MEL-28 = system: SK-MEL-28
SNB-19 = system: SNB-19
HCT-15 = system: HCT-15
SNB-75 = system: SNB-75
RPMI-8226 = system: RPMI-8226
Malme-3M = system: Malme-3M
MDA-MB-435 = system: MDA-MB-435
ACHN = system: ACHN
786-0 = system: 786-0
A549 = system: A549
SK-OV-3 = system: SK-OV-3
SK-MEL-5 = system: SK-MEL-5
SR = system: SR

| Compound | GI50 (IGROV-1) | GI50 (SF-295) | GI50 (HOP-62) | GI50 (UACC-257) | GI50 (UACC-62) | GI50 (CAKI-1) | GI50 (SK-MEL-28) | GI50 (SNB-19) | GI50 (HCT-15) | GI50 (SNB-75) | GI50 (RPMI-8226) | GI50 (Malme-3M) | GI50 (MDA-MB-435) | GI50 (ACHN) | GI50 (786-0) | GI50 (A549) | GI50 (SK-OV-3) | GI50 (SK-MEL-5) | GI50 (SR) |
| --- | --- | --- | --- | --- | --- | --- | --- | --- | --- | --- | --- | --- | --- | --- | --- | --- | --- | --- | --- |
| O=C(O)C1CCCCN1C(=O)Cc1c[nH]c2ccccc12 (centres undefined) | > 100 µM (inactive) | > 100 µM (inactive) | > 100 µM (inactive) | > 100 µM (inactive) | > 100 µM (inactive) | > 100 µM (inactive) | > 100 µM (inactive) | > 100 µM (inactive) | > 100 µM | > 100 µM (inactive) | > 100 µM (inactive) | > 100 µM (inactive) | > 100 µM (inactive) | > 100 µM (inactive) | > 100 µM (inactive) | > 100 µM (inactive) | > 100 µM (inactive) | – | – |
| CN(C)CN1CSC(=S)N(CN(C)C)C1 | 54.3 µM (inactive) | > 100 µM (inactive) | > 100 µM (inactive) | > 100 µM (inactive) | > 100 µM (inactive) | > 100 µM (inactive) | > 100 µM (inactive) | > 100 µM (inactive) | > 100 µM | 58.2 µM (inactive) | – | > 100 µM (inactive) | > 100 µM (inactive) | > 100 µM (inactive) | 43 µM (inactive) | > 100 µM (inactive) | – | > 100 µM (inactive) | 16.8 µM (inactive) |
| CC1=C(C(=O)NCCCN(CCO)CCO)CC(C(=O)NCCCN(CCO)CCO)=C(C)N1 | > 100 µM (inactive) | > 100 µM (inactive) | > 100 µM (inactive) | > 100 µM (inactive) | > 100 µM (inactive) | > 100 µM (inactive) | – | 66.4 µM (inactive) | > 100 µM | 15.2 µM (inactive) | 76 µM (inactive) | – | 56 µM (inactive) | 97.1 µM (inactive) | > 100 µM (inactive) | > 100 µM (inactive) | > 100 µM (inactive) | 22.2 µM (inactive) | – |
| CN1C/C(=C\c2cccs2)C2=NN(C)C(c3cccs3)C2C1 (centres undefined) | 32.4 µM (inactive) | > 100 µM (inactive) | > 100 µM (inactive) | > 100 µM (inactive) | > 100 µM (inactive) | > 100 µM (inactive) | > 100 µM (inactive) | > 100 µM (inactive) | > 100 µM | – | 24.8 µM (inactive) | > 100 µM (inactive) | > 100 µM (inactive) | > 100 µM (inactive) | > 100 µM (inactive) | 89.3 µM (inactive) | > 100 µM (inactive) | 58.3 µM (inactive) | – |
| COc1cccc(-n2c(N)c(-c3nc4cc(C(F)(F)F)ccc4s3)c3ccc([N+](=O)[O-])cc3c2=O)c1 | – | > 100 µM (inactive) | > 100 µM (inactive) | > 100 µM (inactive) | > 100 µM (inactive) | > 100 µM (inactive) | > 100 µM (inactive) | > 100 µM (inactive) | > 100 µM | > 100 µM (inactive) | > 100 µM (inactive) | > 100 µM (inactive) | > 100 µM (inactive) | > 100 µM (inactive) | > 100 µM (inactive) | > 100 µM (inactive) | > 100 µM (inactive) | > 100 µM (inactive) | – |
| O=C(NCCN1CCCCC1)c1cccc(I)c1 | > 100 µM (inactive) | – | – | – | > 100 µM (inactive) | > 100 µM (inactive) | > 100 µM (inactive) | > 100 µM (inactive) | > 100 µM | 55.2 µM (inactive) | > 100 µM (inactive) | – | – | > 100 µM (inactive) | > 100 µM (inactive) | > 100 µM (inactive) | > 100 µM (inactive) | > 100 µM (inactive) | > 100 µM (inactive) |
| CC(Nc1cc(=O)n(C)c(=O)[nH]1)c1ccccc1 (centres undefined) | > 100 µM (inactive) | > 100 µM (inactive) | > 100 µM (inactive) | > 100 µM (inactive) | > 100 µM (inactive) | > 100 µM (inactive) | > 100 µM (inactive) | > 100 µM (inactive) | > 100 µM | > 100 µM (inactive) | – | – | > 100 µM (inactive) | > 100 µM (inactive) | > 100 µM (inactive) | > 100 µM (inactive) | – | > 100 µM (inactive) | > 100 µM (inactive) |
| c1ccc(-c2cs[s+]c2)cc1 | > 100 µM (inactive) | > 100 µM (inactive) | > 100 µM (inactive) | > 100 µM (inactive) | > 100 µM (inactive) | > 100 µM (inactive) | > 100 µM (inactive) | > 100 µM (inactive) | 40.8 µM | > 100 µM (inactive) | – | > 100 µM (inactive) | > 100 µM (inactive) | > 100 µM (inactive) | > 100 µM (inactive) | > 100 µM (inactive) | > 100 µM (inactive) | > 100 µM (inactive) | 52.2 µM (inactive) |
| O=c1[nH]c(=O)n(C2OC(CO)C(O)C(F)C2O)cc1F (centres undefined) | – | > 100 µM (inactive) | – | > 100 µM (inactive) | > 100 µM (inactive) | > 100 µM (inactive) | > 100 µM (inactive) | > 100 µM (inactive) | > 100 µM | – | > 100 µM (inactive) | > 100 µM (inactive) | > 100 µM (inactive) | > 100 µM (inactive) | > 100 µM (inactive) | > 100 µM (inactive) | > 100 µM (inactive) | > 100 µM (inactive) | 25.4 µM (inactive) |
| CC(=O)OCCn1c(Cc2ccc(C)cc2)nn(C(C)=O)c1=O | > 100 µM (inactive) | > 100 µM (inactive) | – | > 100 µM (inactive) | > 100 µM (inactive) | > 100 µM (inactive) | > 100 µM (inactive) | > 100 µM (inactive) | > 100 µM | – | > 100 µM (inactive) | > 100 µM (inactive) | > 100 µM (inactive) | > 100 µM (inactive) | > 100 µM (inactive) | > 100 µM (inactive) | > 100 µM (inactive) | > 100 µM (inactive) | – |
| NS(=O)(=O)c1ccc(NC(=S)N/C=C2\C(=O)Oc3ccccc3C2=O)cc1 | 18.9 µM (inactive) | 32 µM (inactive) | 20.8 µM (inactive) | 67.8 µM (inactive) | 34.8 µM (inactive) | 19.3 µM (inactive) | – | 19 µM (inactive) | 39.2 µM | 4.2 µM (inactive) | 30.4 µM (inactive) | – | 43.5 µM (inactive) | 18.3 µM (inactive) | 40 µM (inactive) | 43 µM (inactive) | 26.4 µM (inactive) | 26.1 µM (inactive) | – |
| O=C1Nc2ccccc2Cn2c1cc1oc(-c3ccccc3)cc12 | 29.8 µM (inactive) | 17.7 µM (inactive) | 21.6 µM (inactive) | > 100 µM (inactive) | 34.1 µM (inactive) | 30 µM (inactive) | 63.5 µM (inactive) | 22.5 µM (inactive) | 88.9 µM | 24.9 µM (inactive) | – | 30.3 µM (inactive) | > 100 µM (inactive) | 37.2 µM (inactive) | 20.4 µM (inactive) | 32.4 µM (inactive) | 28 µM (inactive) | 7.57 µM (inactive) | > 100 µM (inactive) |
| O=C(NNC(=O)c1ccc(Cl)cc1NC(=O)C12CC3CC(CC(C3)C1)C2)c1ccc(Cl)cc1 | 15 µM (inactive) | 22.9 µM (inactive) | 19.8 µM (inactive) | 25.8 µM (inactive) | 21.7 µM (inactive) | 24.4 µM (inactive) | – | 19.1 µM (inactive) | 17.5 µM | – | 15.7 µM (inactive) | 11.4 µM (inactive) | 18.6 µM (inactive) | 23.6 µM (inactive) | 22.5 µM (inactive) | 19.5 µM (inactive) | 25.3 µM (inactive) | 18 µM (inactive) | 28.8 µM (inactive) |
| CCCCCCOc1ccc(NC2=C(Cl)C(=O)c3ncccc3C2=O)cc1 | 2.77 µM (inactive) | 1.96 µM (inactive) | 1.92 µM (inactive) | 1.9 µM (inactive) | 1.44 µM (inactive) | – | 1.64 µM (inactive) | 1.97 µM (inactive) | 2.02 µM | 1.99 µM (inactive) | – | 1.91 µM (inactive) | 1.7 µM (inactive) | > 10 µM (inactive) | 2.22 µM (inactive) | 2.49 µM (inactive) | > 10 µM (inactive) | 1.54 µM (inactive) | – |
| CC(=O)O[C@H]1CC[C@@]2(C)C(=CC[C@@H]3[C@@H]2CC[C@]2(C)c4nc(N)c(C#N)cc4C[C@@H]32)C1 | 34.3 µM (inactive) | 35.7 µM (inactive) | 8.34 µM (inactive) | 27.2 µM (inactive) | 40.6 µM (inactive) | > 100 µM (inactive) | 40 µM (inactive) | > 100 µM (inactive) | 2.94 µM | 7.96 µM (inactive) | 5.83 µM (inactive) | 41.5 µM (inactive) | 33.7 µM (inactive) | 26.4 µM (inactive) | 28.7 µM (inactive) | 25.9 µM (inactive) | 38.2 µM (inactive) | 12.8 µM (inactive) | – |
| O=c1[nH]c(=O)n(C2CC(O)C(CO)O2)cc1OCC1CCCCC1 (centres undefined) | > 100 µM (inactive) | > 100 µM (inactive) | > 100 µM (inactive) | > 100 µM (inactive) | > 100 µM (inactive) | > 100 µM (inactive) | > 100 µM (inactive) | > 100 µM (inactive) | > 100 µM | > 100 µM (inactive) | – | > 100 µM (inactive) | > 100 µM (inactive) | > 100 µM (inactive) | > 100 µM (inactive) | > 100 µM (inactive) | > 100 µM (inactive) | > 100 µM (inactive) | > 100 µM (inactive) |
| Oc1[nH]c(Nc2cc(Cl)cc(Cl)c2)nc2ncnc1-2 | > 75 µM (inactive) | > 75 µM (inactive) | > 75 µM (inactive) | > 75 µM (inactive) | > 75 µM (inactive) | > 75 µM (inactive) | – | > 75 µM (inactive) | > 75 µM | > 75 µM (inactive) | > 75 µM (inactive) | > 75 µM (inactive) | > 75 µM (inactive) | > 75 µM (inactive) | > 75 µM (inactive) | > 75 µM (inactive) | > 75 µM (inactive) | > 75 µM (inactive) | – |
